≈ marks a conversion by molar mass, not a printed value. Where a name gives a salt, the structure may show the parent alone.
What was measured:
[1] = test system: Candida spp.; parameters: method as in earlier work; details: printed in the Candida glabrata column; cited from earlier work
[2] = target: T1, Δ8,7-isomerase (Saccharomyces cerevisiae, UniProt P32352); test: Whole-cell assay for identification of the target enzyme in ergosterol biosynthesis (sterol pattern by GLC-MS); format: cell-based; details: Candida glabrata and Saccharomyces cerevisiae incubated with test compound, lichesterol accumulation indicates Δ8,7-isomerase inhibition
T1 construct: whole-cell assay for identification of the target enzyme in ergosterol biosynthesis; endogenous in cells; host or cells: Saccharomyces cerevisiae and Candida glabrata whole cells
T1 sequence (P32352 whole entry, stated change not applied): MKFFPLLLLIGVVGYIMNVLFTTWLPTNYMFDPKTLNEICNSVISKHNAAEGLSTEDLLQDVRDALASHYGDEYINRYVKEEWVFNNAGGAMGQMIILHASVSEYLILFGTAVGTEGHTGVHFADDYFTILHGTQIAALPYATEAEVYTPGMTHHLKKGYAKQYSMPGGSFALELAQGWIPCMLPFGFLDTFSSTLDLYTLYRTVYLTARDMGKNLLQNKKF
Experimental: The compounds 5c and 7 were also subjected to our whole-cell assay for identification of the target enzyme in ergosterol biosynthesis. In this assay, the strains Candida glabrata and Saccharomyces cerevisiae were incubated with the test compounds, and after cell lysis, the changes in the sterol pattern were analyzed by GLC-MS. The accumulation of the Δ8(9)-sterol lichesterol (ergosta-5,8,22-trien-3β-ol) clearly indicates an inhibition of the enzyme Δ8,7-isomerase.

[3] = test system: Saccharomyces cerevisiae; test: Microdilution assay (MIC); format: cell-based; details: hydrochlorides used, arithmetic average of two determinations, read-out: Minimal inhibitory concentration (MIC)
Experimental: (§1) For comparison, the N-undecylperhydroisoquinoline (C) was also tested here. For solubility reasons, the hydrochlorides were used in this assay (Table 2).

[4] = test system: Candida glabrata; test: Microdilution assay (MIC); format: cell-based; details: Nakaseomyces glabratus, hydrochlorides used, arithmetic average of two determinations, read-out: Minimal inhibitory concentration (MIC)
Experimental: as §1

[5] = test system: Yarrowia lipolytica; test: Microdilution assay (MIC); format: cell-based; details: hydrochlorides used, arithmetic average of two determinations, read-out: Minimal inhibitory concentration (MIC)
Experimental: as §1

[6] = test system: Staphylococcus equorum (DSMZ-Nr. 20675); test: Agar diffusion assay; format: cell-based; details: read-out: diameter of zones of total inhibition
Experimental: (§2) The resulting compounds and known compounds, 1-undecylpiperidine (7) and 1-decylpiperazine (8a), as well as 1-methyl-4-undecylpiperazine (8b) (prepared in the same way), were tested in an agar diffusion assay against Gram-positive (Staphylococcus equorum (DSMZ-Nr. 20675), Streptococcus entericus (DSZM-Nr. 14446)) and Gram-negative bacteria (Escherichia coli (DSMZ-Nr. 426), Pseudomonas marginalis (DSMZ-Nr. 7527)), as well as the fungi Yarrowia lipolytica (DSMZ-Nr. 1345), Candida glabrata (DSMZ-Nr.11226), Aspergillus niger (DSMZ-Nr. 1988), and Hyphopichia burtonii (DSMZ-Nr. 70663) (Table 1).

[7] = test system: Escherichia coli (DSMZ-Nr. 426); test: Agar diffusion assay; format: cell-based; details: E. coli, GI = growth inhibition, read-out: diameter of zones of total inhibition
Experimental: as §2

[8] = test system: Streptococcus entericus (DSZM-Nr. 14446); test: Agar diffusion assay; format: cell-based; details: S. entericus, GI = growth inhibition, read-out: diameter of zones of total inhibition
Experimental: as §2

[9] = test system: Aspergillus niger (DSMZ-Nr. 1988); test: Agar diffusion assay; format: cell-based; details: A. niger, GI = growth inhibition, read-out: diameter of zones of total inhibition
Experimental: as §2

[10] = test system: Candida glabrata (DSMZ-Nr.11226); test: Agar diffusion assay; format: cell-based; details: Nakaseomyces glabratus, C. glabrata, GI = growth inhibition, read-out: diameter of zones of total inhibition
Experimental: as §2

[11] = test system: Yarrowia lipolytica (DSMZ-Nr. 1345); test: Agar diffusion assay; format: cell-based; details: Y. lipolytica, GI = growth inhibition, read-out: diameter of zones of total inhibition
Experimental: as §2

[12] = test system: Hyphopichia burtonii (DSMZ-Nr. 70663); test: Agar diffusion assay; format: cell-based; details: H. burtonii, GI = growth inhibition, read-out: diameter of zones of total inhibition
Experimental: as §2

[13] = test system: Pseudomonas marginalis (DSMZ-Nr. 7527); test: Agar diffusion assay; format: cell-based; details: P. marginalis, GI = growth inhibition, read-out: diameter of zones of total inhibition
Experimental: as §2

[14] = test system: human leukemia cell line (HL 60); test: MTT test (cytotoxicity); format: cell-based; details: HL 60 cell line, arithmetic average of three determinations
Experimental: The cytotoxicity of the compounds 3a–d, 5a–d, and 8b was determined in an MTT test against a human leukemia cell line (HL 60).

[15] = test system: Δ8,7-isomerase; parameters: method as in PMID 24464607; details: cited from earlier work

| Molecule | MIC90 Candida spp. [1] | change in sterol pattern / target enzyme in ergosterol biosynthesis [2] | MIC [3] | MIC [4] | MIC [5] | zone of inhibition at 50 µg/disc [6] | zone of inhibition at 50 µg/disc [7] | zone of inhibition at 50 µg/disc [8] | zone of inhibition at 50 µg/disc [9] | zone of inhibition at 50 µg/disc [10] | zone of inhibition at 50 µg/disc [11] | zone of inhibition at 50 µg/disc [12] | zone of inhibition at 50 µg/disc [13] | IC50 [14] | change in sterol pattern / target enzyme in ergosterol biosynthesis ([2]; listed as N-undecylperhydroquinoline) | antifungal mechanism (enzyme inhibited) [15] |
| --- | --- | --- | --- | --- | --- | --- | --- | --- | --- | --- | --- | --- | --- | --- | --- | --- |
| nystatine B | 4 (MIC90 Candida spp.) [17] µg/mL | – | – | – | – | – | – | – | – | – | – | – | – | – | – | – |
| CCCCCCCCCCCN1CCCCC1 [Compound 7, 1-undecylpiperidine, reference compound] | – | accumulation of lichesterol | 1.75 mg/L (≈ 7.31 µM) | 12.5 mg/L (≈ 52.2 µM) | 7.5 mg/L (≈ 31.3 µM) | 13 mm | 7 mm | 17 mm | 0 mm | 8 mm | 22 mm | 12 mm | 8 mm | – | – | – |
| CCCCCCCCCCCN1CCC[C@@H]2CCCC[C@H]21 (racemic) [Compound 5c, (±)-trans-1-Undecyldecahydroquinoline hydrochloride] | – | accumulation of lichesterol | 0.25 mg/L | 25 mg/L | 5 mg/L | – | – | – | – | – | – | – | – | 7 µM | inhibitor of Δ8,7-isomerase | – |
| OC(Cn1cncn1)(Cn1cncn1)c1ccc(F)cc1F [fluconazole] | 32 (MIC90 Candida spp.) [17] µg/mL | – | – | – | – | – | – | – | – | – | – | – | – | – | – | – |
| CCCCCCCCCCCCN1CCC[C@@H]2CCCC[C@H]21 (racemic) [Compound 5d, (±)-trans-1-Dodecyldecahydroquinoline hydrochloride] | – | – | 2.5 mg/L | 5 mg/L | 2.5 mg/L | – | – | – | – | – | – | – | – | 6 µM | – | – |
| CCCCCCCCCCCN1CC[C@H]2CCCC[C@@H]2C1 (relative stereo) [C, N-n-undecyl-trans-decahydroisoquinoline, reference compound] | – | – | 0.1 mg/L (≈ 0.341 µM) | 5 mg/L (≈ 17 µM) | 1.75 mg/L (≈ 5.96 µM) | – | – | – | – | – | – | – | – | – | – | potent antifungal inhibiting the enzyme Δ8,7-isomerase |
| Clc1ccccc1C(c1ccccc1)(c1ccccc1)n1ccnc1 [clotrimazole, reference compound] | 1 (MIC90 Candida spp.) [17] µg/mL | – | – | – | – | – | – | – | 15 mm | 13 mm | 15 mm | 25 mm | – | – | – | – |
| CCCCCCCCCCCN1CCN(C)CC1 [Compound 8b, 1-methyl-4-undecylpiperazine, reference compound] | – | – | 50 mg/L (≈ 196 µM) | 25 mg/L (≈ 98.2 µM) | 10 mg/L (≈ 39.3 µM) | 18 mm | 10 mm | 15 mm | 12 mm | 11 mm | 25 mm | 14 mm | 15 mm | 46 µM | – | – |
